“And” between values parts separate entries of the source, which are not always exact repeats. Equal values may be shown once. Results filed as inconclusive are left out.
Test system: BDF1 mice, s.c. Lewis lung carcinoma, T/C %
Test: NCI In Vivo Anticancer Drug Screen. Data for tumor model Lewis Lung Carcinoma (subcutaneous) in B6D2F1 (BDF1) mice
How it was run: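 First, mice carry a transplantable tumor. Next, groups receive either compound or vehicle. Finally, survival or tumor dimensions in the dosed animals are divided by the corresponding control figure.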

[1] = endpoint: median survival time, dose: 1.0 mg/kg/injection, schedule: Q01DX009 (ip), vehicle: Klucel (hydroxypropylcellulose) (HPC), higher = longer survival
[2] = endpoint: median survival time, dose: 20.0 mg/kg/injection, schedule: Q01DX009 (ip), vehicle: saline with Tween-80, higher = longer survival
[3] = endpoint: median survival time, dose: 6.0 mg/kg/injection, schedule: Q01DX009 (ip), vehicle: saline with Tween-80, higher = longer survival
[4] = endpoint: median survival time, dose: 50.0 mg/kg/injection, schedule: Q01DX009 (ip), vehicle: saline with Tween-80, higher = longer survival

COC(=O)Nc1nc2ccc(C(=O)c3ccccc3)cc2[nH]1
T/C (endpoint: median survival time, dose: 2.0 mg/kg/injection, schedule: Q04DX003 (ip), vehicle: saline with Tween-80, higher = longer survival): 89 % of control | T/C (endpoint: median survival time, dose: 4.0 mg/kg/injection, schedule: Q04DX003 (ip), vehicle: saline with Tween-80, higher = longer survival): 95 % of control | T/C (endpoint: median survival time, dose: 8.0 mg/kg/injection, schedule: Q04DX003 (ip), vehicle: saline with Tween-80, higher = longer survival): 98 % of control | T/C (endpoint: median survival time, dose: 32.0 mg/kg/injection, schedule: Q04DX003 (ip), vehicle: saline with Tween-80, higher = longer survival): 95 % of control | T/C (endpoint: median survival time, dose: 64.0 mg/kg/injection, schedule: Q04DX003 (ip), vehicle: saline with Tween-80, higher = longer survival): 102 % of control

CC/C(=C(\CC)c1ccc(OC)cc1)c1ccc(O)cc1
T/C (endpoint: mean tumor weight, dose: 15.0 mg/kg/injection, schedule: Q01DX011 (sc), vehicle: steriod suspending solution, higher = larger tumour): 54 % of control | T/C (endpoint: mean tumor weight, dose: 30.0 mg/kg/injection, schedule: Q01DX011 (sc), vehicle: steriod suspending solution, higher = larger tumour): 35 % of control | T/C (endpoint: mean tumor weight, dose: 60.0 mg/kg/injection, schedule: Q01DX011 (sc), vehicle: steriod suspending solution, higher = larger tumour): 23 % of control | T/C (endpoint: mean tumor weight, dose: 100.0 mg/kg/injection, schedule: Q01DX011 (sc), vehicle: steriod suspending solution, higher = larger tumour): 7 % of control | T/C (endpoint: mean tumor weight, dose: 120.0 mg/kg/injection, schedule: Q01DX011 (sc), vehicle: steriod suspending solution, higher = larger tumour): 31 % of control and 36 % of control | T/C (endpoint: mean tumor weight, dose: 200.0 mg/kg/injection, schedule: Q01DX011 (sc), vehicle: steriod suspending solution, higher = larger tumour): 22 % of control | T/C (endpoint: mean tumor weight, dose: 240.0 mg/kg/injection, schedule: Q01DX011 (sc), vehicle: steriod suspending solution, higher = larger tumour): 31 % of control | T/C (endpoint: mean tumor weight, dose: 300.0 mg/kg/injection, schedule: Q01DX011 (sc), vehicle: steriod suspending solution, higher = larger tumour): 22 % of control

NC(Cc1cc([N+](=O)[O-])ccc1CN(CCCl)CCCl)C(=O)O (centres undefined)
T/C [1]: 110 % of control | T/C (endpoint: median survival time, dose: 2.0 mg/kg/injection, schedule: Q01DX009 (ip), vehicle: Klucel (hydroxypropylcellulose) (HPC), higher = longer survival): 116 % of control | T/C (endpoint: median survival time, dose: 3.12 mg/kg/injection, schedule: Q01DX001 (ip), vehicle: Klucel (hydroxypropylcellulose) (HPC), higher = longer survival): 107 % of control | T/C (endpoint: median survival time, dose: 6.25 mg/kg/injection, schedule: Q01DX001 (ip), vehicle: Klucel (hydroxypropylcellulose) (HPC), higher = longer survival): 104 % of control | T/C (endpoint: median survival time, dose: 12.5 mg/kg/injection, schedule: Q01DX001 (ip), vehicle: Klucel (hydroxypropylcellulose) (HPC), higher = longer survival): 103 % of control

COc1cc(-c2ccc(Nc3ccccc3C(=O)O)c(OC)c2)ccc1N
T/C (endpoint: mean tumor weight, dose: 10.0 mg/kg/injection, schedule: Q01DX011 (ip), vehicle: carboxymethylcellulose (CMC), higher = larger tumour): 86 % of control | T/C (endpoint: mean tumor weight, dose: 20.0 mg/kg/injection, schedule: Q01DX011 (ip), vehicle: carboxymethylcellulose (CMC), higher = larger tumour): 72 % of control | T/C (endpoint: mean tumor weight, dose: 40.0 mg/kg/injection, schedule: Q01DX011 (ip), vehicle: carboxymethylcellulose (CMC), higher = larger tumour): 37 % of control

O=c1cnn(C2OC(CO)C(O)C2O)c(=O)[nH]1 (centres undefined)
T/C (endpoint: median survival time, dose: 150.0 mg/kg/injection, schedule: Q01DX009 (ip), vehicle: Klucel (hydroxypropylcellulose) (HPC), higher = longer survival): 150 % of control | T/C (endpoint: median survival time, dose: 600.0 mg/kg/injection, schedule: Q01DX009 (ip), vehicle: Klucel (hydroxypropylcellulose) (HPC), higher = longer survival): 157 % of control

CC(=O)OC(C)(C)/C=C/C(=O)[C@](C)(O)[C@H]1[C@H](O)C[C@@]2(C)[C@@H]3CC=C4[C@@H](C[C@H](O)C(=O)C4(C)C)[C@]3(CO)C(=O)C[C@]12C
T/C (endpoint: mean tumor weight, dose: 0.57 mg/kg/injection, schedule: Q01DX011 (ip), vehicle: saline, higher = larger tumour): 93 % of control

Cc1c2cc3c(c1O)C(=O)CC(O3)c1ccc(O)c(c1)-c1ccc(O)c(c1)C(=O)OCC1OC(O2)C(O)C(O)C1O (centres undefined)
T/C (endpoint: median survival time, dose: 0.13 mg/kg/injection, schedule: Q01DX009 (ip), vehicle: Klucel (hydroxypropylcellulose) (HPC), higher = longer survival): 112 % of control | T/C (endpoint: median survival time, dose: 0.25 mg/kg/injection, schedule: Q01DX009 (ip), vehicle: Klucel (hydroxypropylcellulose) (HPC), higher = longer survival): 102 % of control | T/C (endpoint: median survival time, dose: 0.5 mg/kg/injection, schedule: Q01DX009 (ip), vehicle: Klucel (hydroxypropylcellulose) (HPC), higher = longer survival): 100 % of control | T/C [1]: 101 % of control

CC1CC(C)(O)C2C3(C)CCCC2(COC3=O)C12CCC1(CCOC1=O)O2 (centres undefined)
T/C (endpoint: median survival time, dose: 2.5 mg/kg/injection, schedule: Q01DX009 (ip), vehicle: saline with Tween-80, higher = longer survival): 109 % of control | T/C (endpoint: median survival time, dose: 5.0 mg/kg/injection, schedule: Q01DX009 (ip), vehicle: saline with Tween-80, higher = longer survival): 108 % of control | T/C (endpoint: median survival time, dose: 10.0 mg/kg/injection, schedule: Q01DX009 (ip), vehicle: saline with Tween-80, higher = longer survival): 100 % of control

Nc1cc(Cl)cc(Cl)c1
T/C (endpoint: mean tumor weight, dose: 29.0 mg/kg/injection, schedule: Q01DX011 (ip), vehicle: other, higher = larger tumour): 90 % of control | T/C (endpoint: mean tumor weight, dose: 44.0 mg/kg/injection, schedule: Q01DX011 (ip), vehicle: other, higher = larger tumour): 65 % of control | T/C (endpoint: mean tumor weight, dose: 66.0 mg/kg/injection, schedule: Q01DX011 (ip), vehicle: other, higher = larger tumour): 98 % of control

COc1cccc(/C=C/[N+](=O)[O-])c1
T/C [2]: 104 % of control

C[C@]12CCC(=O)C=C1CC[C@@H]1[C@@H]2[C@@H](O)C[C@@]2(C)[C@H]1CC[C@]2(O)C(=O)CF
T/C (endpoint: mean tumor weight, dose: 3.13 mg/kg/injection, schedule: Q01DX011 (sc), vehicle: steriod suspending solution, higher = larger tumour): 70 % of control | T/C (endpoint: mean tumor weight, dose: 6.25 mg/kg/injection, schedule: Q01DX011 (sc), vehicle: steriod suspending solution, higher = larger tumour): 68 % of control | T/C (endpoint: mean tumor weight, dose: 12.5 mg/kg/injection, schedule: Q01DX011 (sc), vehicle: steriod suspending solution, higher = larger tumour): 65 % of control | T/C (endpoint: mean tumor weight, dose: 25.0 mg/kg/injection, schedule: Q01DX011 (sc), vehicle: steriod suspending solution, higher = larger tumour): 33 % of control

CNCc1ccccc1
T/C (endpoint: mean tumor weight, dose: 25.0 mg/kg/injection, schedule: Q01DX011 (ip), vehicle: carboxymethylcellulose (CMC), higher = larger tumour): 105 % of control | T/C (endpoint: mean tumor weight, dose: 50.0 mg/kg/injection, schedule: Q01DX011 (ip), vehicle: carboxymethylcellulose (CMC), higher = larger tumour): 124 % of control | T/C (endpoint: mean tumor weight, dose: 100.0 mg/kg/injection, schedule: Q01DX011 (ip), vehicle: carboxymethylcellulose (CMC), higher = larger tumour): 65 % of control

CC(C)(CC(=O)O)CC(=O)OCC(=O)[C@@]1(O)CC[C@H]2[C@@H]3CCC4=CC(=O)C=C[C@]4(C)[C@H]3[C@@H](O)C[C@@]21C
T/C (endpoint: mean tumor weight, dose: 40.0 mg/kg/injection, schedule: Q01DX011 (sc), vehicle: steriod suspending solution, higher = larger tumour): 69 % of control | T/C (endpoint: mean tumor weight, dose: 80.0 mg/kg/injection, schedule: Q01DX011 (sc), vehicle: steriod suspending solution, higher = larger tumour): 76 % of control | T/C (endpoint: mean tumor weight, dose: 160.0 mg/kg/injection, schedule: Q01DX011 (sc), vehicle: steriod suspending solution, higher = larger tumour): 60 % of control | T/C (endpoint: mean tumor weight, dose: 320.0 mg/kg/injection, schedule: Q01DX011 (sc), vehicle: steriod suspending solution, higher = larger tumour): 51 % of control and 57 % of control | T/C (endpoint: mean tumor weight, dose: 640.0 mg/kg/injection, schedule: Q01DX011 (sc), vehicle: steriod suspending solution, higher = larger tumour): 31 % of control

CC1OC(Oc2c(-c3ccc(O)c(O)c3)oc3cc(O)cc(O)c3c2=O)C(O)C(O)C1O (centres undefined)
T/C (endpoint: mean tumor weight, dose: 62.5 mg/kg/injection, schedule: Q01DX011 (ip), vehicle: saline, higher = larger tumour): 92 % of control | T/C (endpoint: mean tumor weight, dose: 125.0 mg/kg/injection, schedule: Q01DX011 (ip), vehicle: saline, higher = larger tumour): 93 % of control | T/C (endpoint: mean tumor weight, dose: 250.0 mg/kg/injection, schedule: Q01DX011 (ip), vehicle: saline, higher = larger tumour): 99 % of control | T/C (endpoint: mean tumor weight, dose: 500.0 mg/kg/injection, schedule: Q01DX011 (ip), vehicle: saline, higher = larger tumour): 51 % of control

CC1(C)CCC(NC(=O)N(CCF)N=O)CC1
T/C [3]: 97 % of control | T/C (endpoint: median survival time, dose: 9.0 mg/kg/injection, schedule: Q01DX009 (ip), vehicle: saline with Tween-80, higher = longer survival): 113 % of control | T/C [2]: 265 % of control | T/C (endpoint: median survival time, dose: 30.0 mg/kg/injection, schedule: Q01DX009 (ip), vehicle: saline with Tween-80, higher = longer survival): 236 % of control | T/C [4]: 88 % of control

N#CCCN(Cc1ccccc1)C(N)=O
T/C (endpoint: mean tumor weight, dose: 0.5 mg/kg/injection, schedule: Q01DX011 (ip), vehicle: other, higher = larger tumour): 73 % of control | T/C (endpoint: mean tumor weight, dose: 1.0 mg/kg/injection, schedule: Q01DX011 (ip), vehicle: other, higher = larger tumour): 68 % of control | T/C (endpoint: mean tumor weight, dose: 2.0 mg/kg/injection, schedule: Q01DX011 (ip), vehicle: other, higher = larger tumour): 48 % of control | T/C (endpoint: mean tumor weight, dose: 4.0 mg/kg/injection, schedule: Q01DX011 (ip), vehicle: other, higher = larger tumour): 55 % of control

CN(C)c1nc(N(C)C)nc(N(C)C)n1
T/C (endpoint: median survival time, dose: 6.25 mg/kg/injection, schedule: Q08HX024 (ip), vehicle: Klucel (hydroxypropylcellulose) (HPC), higher = longer survival): 106 % of control | T/C (endpoint: median survival time, dose: 12.5 mg/kg/injection, schedule: Q01DX009 (ip), vehicle: saline with Tween-80, higher = longer survival): 93 % of control and 102 % of control | T/C (endpoint: median survival time, dose: 25.0 mg/kg/injection, schedule: Q01DX009 (ip), vehicle: saline with Tween-80, higher = longer survival): 97 % of control and 102 % of control | T/C (endpoint: median survival time, dose: 25.0 mg/kg/injection, schedule: Q08HX024 (ip), vehicle: Klucel (hydroxypropylcellulose) (HPC), higher = longer survival): 112 % of control | T/C [4]: 103 % of control and 110 % of control | T/C (endpoint: median survival time, dose: 100.0 mg/kg/injection, schedule: Q01DX009 (ip), vehicle: saline with Tween-80, higher = longer survival): 102 % of control

CC(C)C(=O)[O][Sn]([c]1ccccc1)([c]1ccccc1)[c]1ccccc1
T/C (endpoint: median survival time, dose: 3.0 mg/kg/injection, schedule: Q01DX009 (ip), vehicle: saline with Tween-80, higher = longer survival): 110 % of control | T/C [3]: 106 % of control | T/C (endpoint: median survival time, dose: 12.0 mg/kg/injection, schedule: Q01DX009 (ip), vehicle: saline with Tween-80, higher = longer survival): 97 % of control

— PubChem BioAssay AID270 (DTP/NCI, 2004)
